Results: paper PMC9046208, “Foldamers reveal and validate therapeutic targets associated with toxic α-synuclein self-assembly” (Nature Communications, 2022)

Legend:
[1] = molecular target: T1, αS seeds extracted from PD brain (Homo sapiens, UniProt P37840); experiment: PMCA assay with αS seeds from PD brain (PK digestion, western blot); type: biochemical; conditions: SK-129 equimolar
T1 construct: Synuclein Residues (1-140); made in house; host or cells: Monomer: Escherichia coli BL21(DE3), WT αS in pET11 (Addgene); Seeds: fixed human substantia nigra tissue from post mortem PD brain
Excerpt: Fixed brain tissues were obtained from the Carroll A. Campbell, Jr. Neuropathology Lab (CCNL) brain bank at the Medical University of South Carolina (Dr. Steve Carroll, Director) and from Dr. Greg Gerhardt’s laboratory at the University of Kentucky. The seeds were extracted from the post mortem brain by following a published protocol with a slight modification. The brain was sliced in 1 cm slabs as soon as possible to avoid long post mortem intervals and fixed free-floating in a solution of 4% paraformaldehyde in 1x PBS buffer (4% paraformaldehyde in 1x PBS buffer). […] Following fixation, tissue was transferred to a cryoprotectant solution (30% glycerol, 30% ethylene glycol, and 40% 1x PBS buffer, v,v) and kept at −20 °C until dissection. A total of Sixteen brain regions were dissected after fixation and processed for neuropathological diagnosis of PD according to a published protocol. A diagnosis was conducted, which included staining with H & E, Bielshowsky’s silver stain, as well as p-Tau, Amyloid-β, and αS immunohistochemistry (See main manuscript Fig. 4b, c). From the total tissue amount, ~100 mg of fixed substantia nigra tissue was homogenized using a Bio-Gen PRO200 Tissue Homogenizer (PRO Scientific Inc., Oxford, CT) in 1x PBS buffer (10%, w/v). The homogenate was centrifuged at a rate of 19,000 × g for 12 min. […]

Aβ42 = Aβ42 (Homo sapiens, UniProt P05067); experiment: Fluorescence polarization titration, SK-129F with Aβ42; type: binding; conditions: FP, higher Kd for Aβ42
Sequence of Aβ42 (P05067 672-713 limits assumed, species assumed): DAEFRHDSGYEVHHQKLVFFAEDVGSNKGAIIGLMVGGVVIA
Protocol: All Fluorescence Polarization (FP) experiments were conducted on a Varian Cary Eclipse fluorometer (Agilent, Santa Clara, CA) equipped with a polarizer. The stock solutions of αS, 1 mM or 100 μM in 1x PBS buffer, were serially added into a solution of 10 μM SK-129F (300 μL in 1x PBS buffer) while stirring in a quartz cuvette (Fireflysci, Staten Island, NY). All FP measurements were conducted in triplicates in 20 mM Tris, 100 mM NaCl, pH 7.2 at 20 °C. The excitation and emissions wavelengths were set at 490 nm and 520 nm, respectively. Each titration was equilibrated for five min before measurements were taken for the next addition of αS solution. The addition of αS solution was continuous until no more change in the FP signal was observed. Similar conditions were used for the titration of various αS mutants and Aβ42 peptide against SK-129F. A stock solution of Aβ42 (1 mM or 100 μM in 1x PBS buffer on ice) was sequentially added to a solution of 10 μM SK-129F (300 μL in 1x PBS buffer) until no more change in the FP signal was observed. The polarization of each point was calculated using Eq. 1:1 FP=I∥−I⊥/I∥+I⊥ Where I∥ is fluorescence intensity parallel to the excitation plane and I⊥ is fluorescence intensity perpendicular to the excitation plane. […]

state of PMCA sample (cycle 5) of PD brain extract [1]: neither aggregated nor PK resistant | Kd for Aβ42 relative to αS (Aβ42): more than 15 fold
Compound: COC(=O)c1cc(OCC(=O)O)c2cccc(NC(=O)c3cc(OC(C)C)c4cccc(NC(=O)c5cc(OCC(=O)O)c6cccc(NC(=O)c7cc(OC(C)C)c8cccc([N+](=O)[O-])c8n7)c6n5)c4n3)c2n1 [SK-129]
